Results on eleven molecules are retold here after article PMC12074337, “Isolation and Characterization of Earthworm Peptides with Neuroprotective Effects in Parkinson’s Disease Models” (Molecules, 2025).

Like-named read-outs stand apart in the source and are kept apart here. No end group written: not given here.

Assay [1] concerns PINK1^B9 flies. More on the design: method as in PMID 30248358. Particulars: cited from earlier work.
The test system of assay [2] is PINK1^B9 flies. Nature of the assay: Lifespan of PINK1^B9 flies. In kind it is in vivo, Drosophila. As to conditions: 1 mM in medium, male flies.
Procedure: The flies were cultured on a conventional fly medium under controlled conditions of 25 ± 1 °C and 60% relative humidity. The traditional medium for cultivating flies was prepared by boiling 90 g of yeast, 240 g of corn flour, 32 g of agar, 189 g of glucose, and 98 g of sucrose, as well as adding a preservative solution consisting of 25 mL of a 10% methyl-4-hydroxybenzoate in distilled water to make a final volume of 3.5 L. The experimental medium was prepared by supplementing formula 4–24 instant Drosophila medium (Carolina Biological Supply Company, Burlington, NC, USA) with a concentration of 0.1 mM peptide. Male individuals of both wild-type (WT) and PINK1^B9 flies were collected for subsequent experiments.
The newly hatched male WT flies and male PINK1^B9 mutants were collected simultaneously, followed by their division into four groups with 4 bottles per group and 40 flies per bottle. The first group was provided with WT flies and fed with formula 4–24 instant drosophila medium. The second group consisted of PINK1^B9 flies and was also fed with formula 4–24 instant drosophila medium. The third group comprised PINK1^B9 flies and received formula 4–24 instant drosophila medium supplemented with 0.1 mM peptide. […] Fresh medium was replaced every 2–3 days, while the number of flies was recorded daily.
Assay [3] concerns the target T1, PINK1 (Tribolium castaneum, UniProt D6WMX4).
T1 construct: made in house
T1 sequence (D6WMX4 6-570): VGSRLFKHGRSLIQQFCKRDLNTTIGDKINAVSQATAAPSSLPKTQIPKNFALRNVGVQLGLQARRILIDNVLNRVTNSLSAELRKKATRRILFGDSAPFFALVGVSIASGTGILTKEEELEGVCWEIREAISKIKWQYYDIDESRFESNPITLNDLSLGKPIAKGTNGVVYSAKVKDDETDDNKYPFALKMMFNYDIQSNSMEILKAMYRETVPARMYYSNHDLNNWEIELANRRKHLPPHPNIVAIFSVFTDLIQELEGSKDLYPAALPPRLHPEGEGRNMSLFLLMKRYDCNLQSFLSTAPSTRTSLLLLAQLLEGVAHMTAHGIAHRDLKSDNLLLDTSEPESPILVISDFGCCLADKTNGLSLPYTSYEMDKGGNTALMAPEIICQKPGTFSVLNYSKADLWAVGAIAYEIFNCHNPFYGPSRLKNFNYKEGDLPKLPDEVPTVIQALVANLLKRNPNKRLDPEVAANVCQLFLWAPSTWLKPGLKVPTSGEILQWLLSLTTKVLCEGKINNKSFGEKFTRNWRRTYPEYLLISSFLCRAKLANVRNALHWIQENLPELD
Nature of the assay: biochemical. Particulars: for PINK1 agonistic rate: 100 μM. Format: biochemical. On the procedure:
The earthworms (Lumbricus terrestris) were purchased from Beijing Tongrentang Co., Ltd. (Chengdu, China). They were dried by the supplier through sun-drying and stored at 4 °C. The shelf life is one year. Rasagiline was purchased from Aladdin Biochemical Technology Co., Ltd. (Shanghai, China). Resveratrol was purchased from Pusi Biotechnology Co., Ltd. (Chengdu, China). The SH-SY5Y cells were obtained from the National Collection of Authenticated Cell Cultures (Shanghai, China). […] Dulbecco’s modified Eagle’s medium/Ham’s F-12 (DMEM/F12), fetal bovine serum (FBS), and phosphate-buffered saline (PBS) were purchased from Biological Industries (Kibbutz Beit HaEmek, Israel). Fluorescein diacetate (FDA), propidium iodide (PI) staining and mitochondrial membrane potential test kit (JC-1) were purchased from Beijing Solarbio Science & Technology Co., Ltd. (Beijing, China). Cell Counting Kit-8 (CCK-8) was purchased from Bimake Co., Ltd. (Shanghai, China). PrimeScript RT reagent kit and PerfectStart Green PCR Master Mix were purchased from TransGen Biotech (Beijing, China). […] The Kinase-Lumi™ Luminescent Kinase Assay Kit and ATP Assay Kit were purchased from Beyotime Biotechnology Co., Ltd. (Wuhan, China). The Insect dopamine (DA) ELISA Kit was purchased from Jiangsu Meimian Industrial Co., Ltd. (Yancheng, Jiangsu, China). HPLC-grade methanol was supplied by XLJ (Yunnan, China). Ultrapure water used in the experiment was prepared using a UP water purification (18.25 MΩ) system (Chengdu, China). Unless otherwise specified, chemicals and solvents were purchased from Kelong Chemical Reagents Factory (Chengdu, China).
The PINK1 activity assay was conducted with certain modifications based on the described by. Ubiquitin is a potent substrate for PINK1, which catalyzes the phosphorylation of ubiquitin while consuming ATP [33]. During the reaction, the consumption of ATP is associated with PINK1 activity. […] The enzymatic reaction was conducted on a white 96-well plate, with all samples dissolved in a buffer solution containing 50 mM Tris-HCl (pH = 7.5), 0.1 mM EDTA, 10 mM MgCl2, and 4% 2-hydroxy-1-ethanethiol. Subsequently, 10 μL of peptide sample, 10 μL of PINK1 (6.8 μM), 10 μL of ubiquitin (0.002 pg/mL), and 20 μL of ATP (10 μM) were added to the plate for incubation at a temperature of 25 °C for a duration of ten minutes. In addition, the blank control group replaces the peptide with a buffer solution. The resveratrol was employed as a positive control. The amount of ATP consumed was detected using the Kinase-Lumi™ Luminescent Kinase Assay Kit. The PINK1 agonistic rate was calculated by the following equation:(1) PINK1 agonistic rate (%)=(1−A−B/C−D)×100% where A represents the absorbance of the sample group consisting of the sample, PINK1, ubiquitin, and ATP; B represents the absorbance of the sample control group consisting of the sample, PINK1, and ubiquitin; C represents the absorbance of the control group consisting of PINK1, ubiquitin, and ATP; D represents the absorbance of the blank control group consisting of PINK1 and ubiquitin. The EC50 of each peptide was calculated using GraphPad Prism, version 10.0.2 software.

The test system of assay [4] is MPP^+-damaged SH-SY5Y cells. Nature of the assay: CCK-8 viability, neuroprotection of MPP+-damaged SH-SY5Y cells. Format: cell-based, human. Particulars: 100 μM. How it is done: The SH-SY5Y human neuroblastoma cell line is extensively employed as a prominent cellular model for PD [31]. The neuroprotective effect of earthworm peptides against the MPP^+-damaged SH-SHY5Y cell model was evaluated using the CCK-8 method. First, the SH-SHY5Y cells were cultured in DMEM/F12 medium supplemented with 10% fetal bovine serum (FBS) and 1% penicillin–streptomycin, and they were maintained at a temperature of 37 °C with a CO2 concentration of 5% in a humidified atmosphere. The SH-SHY5Y cells were seeded into 96-well plates at a density of 1 × 10^4 cells per well, followed by incubation at 37 °C for 24 h. Subsequently, the initial medium was carefully aspirated. The peptide samples were dissolved in DMSO to prepare a high-concentration stock solution and then diluted to the required concentration (10, 25, 50, 100, and 150 μM), prepared using a medium, where they were subsequently introduced into the well and incubated at 37 °C for a duration of 2 h. Then, the cells were treated with MPP^+ (2 mM) per well for an additional 24 h. […] Following the completion of the experiment, the 96-well plate was extracted, and the absorbance was measured at 450nm by the […] GO spectrophotometric plate reader (Thermo Scientific, Waltham, MA, USA). The data were analyzed using GraphPad Prism, version 6.0.

Assay [5] has as its system inflammatory enzymes. Particulars: in vitro and in vivo; cited from earlier work. The source says: (§1) Earthworm is used in traditional Chinese medicine as an animal-derived remedy. Its protein content and amino acid composition are better than those of fish, cow milk, and soybean meal. […] Moreover, its essential amino acid utilization rate is higher in the body and is more readily assimilated by the human system. Therefore, it is used as a supplement in animal feed and human food. Earthworm has been recorded in the Chinese medical classics of “ ...

The test system of assay [6] is SH-SY5Y cells. As to conditions: cited from earlier work.
Source text: as §1

Assay [7] deals with PTEN-induced putative kinase 1 (PINK1) (UniProt D6WMX4).
Where [8] appears, read: ubiquitin substrate, 10 μM ATP, pH 7.5 Tris-HCl, 25 °C, 10 min, residual ATP luminescence, mean ± SD (n = 3).

One may read the EC50 as the concentration giving half of the maximal effect. On to `Oc1ccc(/C=C/c2cc(O)cc(O)c2)cc1` [Resveratrol, resveratrol], for which the “lifespan of PINK1^B9 flies (in words)” value is recorded as “no significant effect” in assay [1] (0.2 mM resveratrol) and “effective in extending the lifespan” in assay [1] (1 mM resveratrol). For the same molecule, the “lifespan extension of PINK1^B9 flies” value in assay [2] amounted to 23.33%. This molecule also yielded a PINK1 agonistic rate in assay [3] (setting [8]) of 91.45 ± 0.34%. Moreover, the EC50 in assay [3] (ubiquitin substrate, 10 μM ATP, pH 7.5 Tris-HCl, 25 °C, 10 min, residual ATP luminescence, mean ± SD (n = 3), read-out: EC50, PINK1 agonistic activity) turned out to be 13.8 ± 0.58 µM.
In assay [3] (setting [8]), “AGFAGDDAPR [peptide identified from earthworm (Lumbricus terrestris), synthesized by solid phase]” returned a PINK1 agonistic rate of 33.45 ± 0.45%.
As for AVFPSIVGR, the “cell viability (restored to)” value in assay [4] (2 h pre-incubation, then 2 mM MPP^+ 24 h, 37 °C, CCK-8, absorbance 450 nm, n = 3) is 68.77%. Moreover, a half-maximal response in assay [3] (EC50) required 88.5 ± 0.97 µM. The molecule also showed a PINK1 agonistic rate in assay [3] (setting [8]) of 50.35 ± 0.72%.
For GYSFTTTAER, in assay [4] (2 h), the “cell viability (restored to)” value was 70.08%. In assay [3], a half-maximal response (EC50) required 76.8 ± 1.3 µM. In assay [3] (setting [8]), this molecule had a PINK1 agonistic rate of 52.46 ± 0.96%.
In assay [3] (setting [8]), “ILLIILI [peptide identified from earthworm (Lumbricus terrestris), synthesized by solid phase]” gave a PINK1 agonistic rate of 17.16 ± 0.55%.
As to QLICWRRFR [LumA5, lumbricusin analog 5], the “expression of lip-induced inflammatory enzymes” value in assay [5] is reported as “significantly reduce”. Also, the “viability of SH-SY5Y cells” value in assay [6] is recorded as “improved”.
Take “RNRRWCIDQQA [lumbricusin, antimicrobial peptide derived from earthworm]”: the “apoptosis and decreased viability induced by MPP^+” value in assay [6] (SH-SY5Y) is reported as “inhibits”. In addition, the SH-SY5Y cell proliferation result in assay [6] is on record as “promotes”.

B1: … (peptide)
peptide: AVFPSIVGR
In assay [7], B1 gave an EC50 of PINK1 agonistic activity; ATP consumed by purified PINK1 with ubiquitin as substrate (Kinase-Lumi luminescent kinase assay) of 88.5 µM and a PINK1 agonistic rate (%) at 100 μM peptide; ATP consumed by purified PINK1 with ubiquitin as substrate (Kinase-Lumi luminescent kinase assay) of 50.4%.

B2: … (peptide)
peptide: GYSFTTTAER
In assay [7], B2 had an EC50 of PINK1 agonistic activity; ATP consumed by purified PINK1 with ubiquitin as substrate (Kinase-Lumi luminescent kinase assay) of 76.8 µM and a PINK1 agonistic rate (%) at 100 μM peptide; ATP consumed by purified PINK1 with ubiquitin as substrate (Kinase-Lumi luminescent kinase assay) of 52.5%.

B3: … (peptide)
peptide: AGFAGDDAPR
For the molecule B3, the PINK1 agonistic rate (%) at 100 μM peptide; ATP consumed by purified PINK1 with ubiquitin as substrate (Kinase-Lumi luminescent kinase assay) in assay [7] is 33.5%.

B4: ILLIILI (peptide)
peptide: ILLIILI
As for B4, the PINK1 agonistic rate (%) at 100 μM peptide; ATP consumed by purified PINK1 with ubiquitin as substrate (Kinase-Lumi luminescent kinase assay) in assay [7] worked out at 17.2%.
